# Data reported in ChEMBL document CHEMBL1201862, “PubChem BioAssay data set” (2004).
#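 Growth conditions: 96-well plates. Treatment: test compound, 48 hours, 5 concentrations. Analysis: linear interpolation between bracketing concentrations; unreached endpoints set to highest concentration. GI50 marks 50% less growth.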 The source made the active and inactive calls. No stated cut-off is given here; in the data, active = GI50 up to about 1.1 µM and inactive = higher.
# Legend:
# Test in all cases: DTP human tumour cell line panel, 48 h
# [1] = tested on: 786-0
# [2] = tested on: A498
# [3] = tested on: ACHN
# [4] = tested on: COLO 205
# [5] = tested on: DLD-1
# [6] = tested on: HOP-92
# [7] = tested on: HT-29
# [8] = tested on: K562
# [9] = tested on: MCF7
# [10] = tested on: MDA-MB-435
# [11] = tested on: Malme-3M
# [12] = tested on: NCI-H226
# [13] = tested on: OVCAR-4
# [14] = tested on: OVCAR-5
# [15] = tested on: SF-268
# [16] = tested on: SK-MEL-28
# [17] = tested on: SN12C
# [18] = tested on: TK-10
# [19] = tested on: UACC-257
# [20] = tested on: MDA-MB-231
SMILES,GI50 [1],GI50 [2],GI50 [3],GI50 [4],GI50 [5],GI50 [6],GI50 [7],GI50 [8],GI50 [9],GI50 [10],GI50 [11],GI50 [12],GI50 [13],GI50 [14],GI50 [15],GI50 [16],GI50 [17],GI50 [18],GI50 [19],GI50 [20]
CC(C)(C)NNc1c([N+](=O)[O-])cnn(-c2ccccc2)c1=O,6.24 µM (inactive),29.8 µM (inactive),8.71 µM (inactive),4.63 µM (inactive),4.56 µM (inactive),6.5 µM (inactive),2.84 µM (inactive),0.942 µM (active),2.92 µM (inactive),1.81 µM (inactive),4.05 µM (inactive),7.96 µM (inactive),3.59 µM (inactive),8.81 µM (inactive),9.82 µM (inactive),2.49 µM (inactive),3.14 µM (inactive),22 µM (inactive),4.6 µM (inactive),
Cc1nc(-n2nc(-c3ccccc3)cc2-c2ccccc2)sc1C(=O)/C=C/c1ccc([N+](=O)[O-])cc1,13 µM (inactive),> 43.8 µM (inactive),26.5 µM (inactive),24.4 µM (inactive),15.3 µM (inactive),> 56.5 µM (inactive),16.3 µM (inactive),14.2 µM (inactive),5.74 µM (inactive),16 µM (inactive),34.2 µM (inactive),57.8 µM (inactive),34.1 µM (inactive),> 59.4 µM (inactive),16.7 µM (inactive),28.7 µM (inactive),29.1 µM (inactive),41.5 µM (inactive),34.5 µM (inactive),33.1 µM (inactive)
O=C1Nc2cc(F)ccc2C1=O,> 100 µM (inactive),> 100 µM (inactive),> 100 µM (inactive),72.3 µM (inactive),> 100 µM (inactive),> 100 µM (inactive),> 100 µM (inactive),> 100 µM (inactive),,,> 100 µM (inactive),> 100 µM (inactive),> 100 µM (inactive),> 100 µM (inactive),> 100 µM (inactive),> 100 µM (inactive),> 100 µM (inactive),> 100 µM (inactive),> 100 µM (inactive),
O=S(=O)(O)c1cc(S(=O)(=O)O)c2cc(/N=N/c3ccc(/N=N/c4ccc(/C=C/c5ccc(/N=[N+](/[O-])c6ccc(/C=C/c7ccc(/N=N/c8ccc(/N=N/c9ccc%10cc(S(=O)(=O)O)cc(S(=O)(=O)O)c%10c9)cc8)cc7S(=O)(=O)O)c(S(=O)(=O)O)c6)cc5S(=O)(=O)O)c(S(=O)(=O)O)c4)cc3)ccc2c1,,> 100 µM (inactive),,50.7 µM (inactive),> 81.3 µM (inactive),> 58.5 µM (inactive),> 55.1 µM (inactive),> 100 µM (inactive),> 100 µM (inactive),,> 62.8 µM (inactive),> 50.5 µM (inactive),> 48.1 µM (inactive),> 79.3 µM (inactive),> 69 µM (inactive),> 100 µM (inactive),> 54.1 µM (inactive),,> 60.3 µM (inactive),
